One data set is described as follows: Solubility (qualitative). The class given is physicochemical.
In data set [1] the test system is natural killers (NK-cells). In words: NK-cell functional activity test (lysis of K-562 target cells, fluorescent tag). The class given is cell-based. The settings on record: Homo sapiens, ratio of treated to untreated NK-cells activity, read-out: Relative value of change of NK-activity over DMAAM compounds. From the text: Immunostimulating activity. Determination of the effect of claimed compounds on functional activity of immunocomptent human cells.
Immunocompetent cells - natural killers (NK-cells) - relate to the system of natural human body resistance. Identification of the status of this immune system link gives important information about the state of the body immune status. To assess the state of this immune system link depending on the presence of studied compounds a functional test was used to determine the NK-cells capacity to expose to lysis the target cells of tumor myeloblast culture K-562, the identification of which was implemented using a fluorescent tag. NK-cells activity was identified in accordance with the number of the target cells K-562 "killed" by them which were evaluated based on the intensity of fluorescent glowing in the area characteristic for killed cells and against control results (i.e. when NK-cells are absent).
The influence level of the studied drugs on NK-cells activity was assessed based on the value of the NK-cells activity ratio when treated with these medications to the activity of untreated NK-cells in the lysis process of target cells of the test culture, line K-562.
To select medication doses and concentrations while studying their activity, their minimal toxic dose against target cells and mononuclear cells of peripheral blood was preliminarily measured.
This defines a considerable immunostimulating effect of offered substances.
In addition immunostimulating effect mainly occurs in polymeric compounds (PVASA - DMAAM, VA - VASA - DMAAM, VP - VASA - DMAAM), and with an increase of drug concentration their stimulating impact on NK-cells activity enhances. Table 1. Change of NK-cells activity over 3.5-dimethyl-1-adamantylamine.

Data set [2] has as its system mononuclear cells of peripheral blood (NK-cells). The class given is cell-based, human. The settings on record: IU of interferon antiviral activity as regards the virus of vesicular stomatitis.
Data set [3] deals with white mice of both sexes, line "Balb". As to the kind of experiment: Acute toxicity, single oral administration, mice. The data set is classed as in vivo. As for the experimental part:
The toxicity level of claimed compounds was assessed according to a general index of acute toxicity - average fatal dose of LD50. The study was held with a single oral administration of the medication to white mice of both sexes, line "Balb", weight 18 - 20 g, and to white rats, line "Vistar", weight 130 - 250 g (female) and 225 - 370 g (male). The medications were administered to mice in the dose ranging from 25 to 1100 mg/kg, and to rats in the range of 480 - 2315 mg/kg.

Molecules are shown by their SMILES. Counter-ions that a name gives are not always drawn. Like-named read-outs stand apart in the source and are kept apart here.

Consider `CC12CC3CC(C)(C1)CC(N)(C3)C2` [3.5-dimethyl-1-adamantylamine], for which the solubility in water entry in the data set “Solubility (qualitative)” is “insoluble in water”.

With `CC12CC3CC(C)(C1)CC(N)(C3)C2` [HC - DMAAM, hydrochloride 3.5-dimethyl-1-adamantylamine], in data set [1] (K562, concentration 2 mcg/ml (as calculated per DMAAM)), the fold induction at 2 µg/mL is 1. Besides, in data set [1] (K562, concentration 10 mcg/ml (as calculated per DMAAM)), the fold induction at 10 µg/mL is 1.2. For the same compound, the fold induction at 50 µg/mL in data set [1] (K562, concentration 50 mcg/ml (as calculated per DMAAM)) was 1.6. The “Interferon induction activity of NK-cells” value in data set [2] (concentration 2 mcg/ml (as calculated per DMAAM)) is given as 5.77 IU/ml; in data set [2] (concentration 10 mcg/ml (as calculated per DMAAM)), 13.00 IU/ml; in data set [2] (concentration 50 mcg/ml (as calculated per DMAAM)), 14.46 IU/ml. Also, the LD50 in data set [3] was 363 mg/kg.

Values taken from patent publication EP1759703A1, “IMMUNISTIMULATIVE AND INTERFERONOGENOUS AGENT” (Akciju Sabiedriba "Olainfarm", priority 2004, dated 2006).
